# What was measured:
# Mcl-1 protein = Mcl-1 protein (Homo sapiens, UniProt Q07820); test: Fluorescence polarization-based binding; conditions: for decrease in Mcl-1 inhibitory activity: compared with coumarin 33
# A549 cells = test: Cytotoxicity assay by SRB method; conditions: taxol in combination with Cpd 4 vs taxol alone
# Chain of Mcl-1 protein (Q07820 whole entry): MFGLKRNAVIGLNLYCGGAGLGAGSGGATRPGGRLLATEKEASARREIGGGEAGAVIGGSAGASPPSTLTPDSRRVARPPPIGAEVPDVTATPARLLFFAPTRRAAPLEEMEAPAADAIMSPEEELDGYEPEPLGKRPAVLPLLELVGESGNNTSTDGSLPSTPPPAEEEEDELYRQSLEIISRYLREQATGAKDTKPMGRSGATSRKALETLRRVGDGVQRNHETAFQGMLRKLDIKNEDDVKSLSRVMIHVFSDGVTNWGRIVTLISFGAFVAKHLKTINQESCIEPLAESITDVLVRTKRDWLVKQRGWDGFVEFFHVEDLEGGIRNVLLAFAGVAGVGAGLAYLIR
molecule,measurement,setting,value
"Cc1cc(=O)oc2c(CN3CCC(O)CC3)c(O)c(O)cc12 [Cpd 15, 6,7-dihydroxy-8-((4-hydroxypiperidin-1-yl)methyl)-4-methyl-2H-chromen-2-one]",decrease of Mcl-1 inhibitory activity,Mcl-1 protein; compared with parent 1,more than 7 fold
"O=c1ccc2cc(O)ccc2o1 [Cpd 34, 6-hydroxycoumarin]",decrease in Mcl-1 inhibitory activity,Mcl-1 protein,6 fold
"O=c1ccc2ccc(O)cc2o1 [Cpd 35, 7-hydroxycoumarin]",decrease in Mcl-1 inhibitory activity,Mcl-1 protein,little effect
CC(=O)O[C@H]1C(=O)[C@@]2(C)[C@H]([C@H](OC(=O)c3ccccc3)[C@]3(O)C[C@H](OC(=O)[C@H](O)[C@@H](NC(=O)c4ccccc4)c4ccccc4)C(C)=C1C3(C)C)[C@]1(OC(C)=O)CO[C@@H]1C[C@@H]2O [taxol],decrease of IC50 value for the combination compared with taxol alone,A549 cells,more than 10 fold
FAM-Bid: Bid BH3 peptide of 21-residue (residues 79–99) with a 6-carboxy-fluorescein succinimidyl ester fluorescence tag [reference compound],Kd,"Mcl-1 protein; read-out: Kd for binding to Mcl-1 protein, saturation experiments",13 nM
